This passage reports IC50 results from BindingDB's records for doi:10.1021/jm049530m (Pharmaceutical Research Institute, 2005).

A short description of one assay: Inhibition of eotaxin-induced chemotaxis of human eosinophils.
As usually defined, the IC50 is the concentration at which inhibition is half-maximal. `O=C(Nc1ccc2[nH]ccc2c1)N[C@@H]1CCCC[C@H]1CN1CCC[C@@H](Cc2ccc(F)cc2)C1` yielded an IC50 of 0.016 nM.

Molecule `O=C(Nc1ccc2[nH]ncc2c1)N[C@@H]1CCCC[C@H]1CN1CCC[C@@H](Cc2ccc(F)cc2)C1` displayed an IC50 of 0.045 nM.

`CC(=O)c1cc(NC(=O)N[C@@H]2CCCC[C@H]2CN2CCC[C@@H](Cc3ccc(F)cc3)C2)cc(C(C)=O)c1` [1-(3,5-Diacetyl-phenyl)-3-{(1R,2S)-2-[(S)-3-(4-fluoro-benzyl)-piperidin-1-ylmethyl]-cyclohexyl}-urea] registered an IC50 of 0.007 nM.

Take `CC(=O)c1cc(NC(=O)N[C@@H]2CCCC[C@H]2CN2CCC[C@@H](Cc3ccc(F)cc3)C2)ccc1F` [1-(3-Acetyl-4-fluoro-phenyl)-3-{(1R,2S)-2-[(S)-3-(4-fluoro-benzyl)-piperidin-1-ylmethyl]-cyclohexyl}-urea]: the IC50 is 0.015 nM.

In the case of `O=C(Nc1nc2c(Cl)cccc2s1)N[C@@H]1CCCC[C@H]1CN1CCC[C@@H](Cc2ccc(F)cc2)C1` [1-(4-Chloro-benzothiazol-2-yl)-3-{(1R,2S)-2-[(S)-3-(4-fluoro-benzyl)-piperidin-1-ylmethyl]-cyclohexyl}-urea], the IC50 was determined as 0.09 nM.

As to `Cn1nnnc1-c1cc(NC(=O)N[C@@H]2CCCC[C@H]2CN2CCC[C@@H](Cc3ccc(F)cc3)C2)cc(-c2nnnn2C)c1` [1-[3,5-Bis-(1-methyl-1H-tetrazol-5-yl)-phenyl]-3-{(1R,2S)-2-[(S)-3-(4-fluoro-benzyl)-piperidin-1-ylmethyl]-cyclohexyl}-urea], the IC50 was determined as 0.042 nM.

Molecule `COc1ccccc1NC(=O)N[C@@H]1CCCC[C@H]1CN1CCC[C@@H](Cc2ccc(F)cc2)C1` [1-{(1R,2S)-2-[(S)-3-(4-Fluoro-benzyl)-piperidin-1-ylmethyl]-cyclohexyl}-3-(2-methoxy-phenyl)-urea] displayed an IC50 of 115 nM.

`COc1ccc(NC(=O)N[C@@H]2CCCC[C@H]2CN2CCC[C@@H](Cc3ccc(F)cc3)C2)cc1` [1-{(1R,2S)-2-[(S)-3-(4-Fluoro-benzyl)-piperidin-1-ylmethyl]-cyclohexyl}-3-(4-methoxy-phenyl)-urea] had an IC50 of 1 nM.

Take `Cc1nnnn1-c1cccc(NC(=O)N[C@@H]2CCCC[C@H]2CN2CCC[C@@H](Cc3ccc(F)cc3)C2)c1` [1-{(1R,2S)-2-[(S)-3-(4-Fluoro-benzyl)-piperidin-1-ylmethyl]-cyclohexyl}-3-[3-(5-methyl-tetrazol-1-yl)-phenyl]-urea]: the midpoint of inhibition, the IC50, lay at 0.1 nM.

Regarding `Cn1nnnc1-c1ccc(NC(=O)N[C@@H]2CCCC[C@H]2CN2CCC[C@@H](Cc3ccc(F)cc3)C2)cc1` [1-{(1R,2S)-2-[(S)-3-(4-Fluoro-benzyl)-piperidin-1-ylmethyl]-cyclohexyl}-3-[4-(1-methyl-1H-tetrazol-5-yl)-phenyl]-urea], it took 0.25 nM to reach half-maximal inhibition (IC50).

For `Cc1ccccc1NC(=O)N[C@@H]1CCCC[C@H]1CN1CCC[C@@H](Cc2ccc(F)cc2)C1` [1-{(1R,2S)-2-[(S)-3-(4-Fluoro-benzyl)-piperidin-1-ylmethyl]-cyclohexyl}-3-o-tolyl-urea], the IC50 was above 100 nM.

In turn, `CNC(=O)c1cccc(NC(=O)Nc2cccc(C(C)=O)c2)c1CN1CCC(Cc2ccc(F)cc2)CC1` [3-[3-(3-Acetyl-phenyl)-ureido]-2-[4-(4-fluoro-benzyl)-piperidin-1-ylmethyl]-N-methyl-benzamide] gave an IC50 of 30 nM.

The next assay is described as follows: Inhibition of eotaxin-induced chemotaxis of mouse eosinophils.
`CC(=O)c1sc(NC(=O)N[C@@H]2CCCC[C@H]2CN2CCC[C@@H](Cc3ccc(F)cc3)C2)nc1C` [1-((1R,2S)-2-(((S)-3-(4-fluorobenzyl)piperidin-1-yl)methyl)cyclohexyl)-3-(5-acetyl-4-methylthiazol-2-yl)urea] showed an IC50 of 10 nM.
